How the values were obtained:
EGFR (human) [1] = biological target: EGFR (human) (UniProt P00533); settings: sk-br-3
EGFR (human) [2] = biological target: EGFR (human) (UniProt P00533); settings: mda468
EGFR (human) [3] = biological target: EGFR (human) (UniProt P00533); settings: a431
EGFR (mice) = EGFR (mice) (UniProt P00533); settings: swiss 3t3 fibroblast, dose or concentration not given here
Sequence of EGFR (mice) (P00533 whole entry, looked up): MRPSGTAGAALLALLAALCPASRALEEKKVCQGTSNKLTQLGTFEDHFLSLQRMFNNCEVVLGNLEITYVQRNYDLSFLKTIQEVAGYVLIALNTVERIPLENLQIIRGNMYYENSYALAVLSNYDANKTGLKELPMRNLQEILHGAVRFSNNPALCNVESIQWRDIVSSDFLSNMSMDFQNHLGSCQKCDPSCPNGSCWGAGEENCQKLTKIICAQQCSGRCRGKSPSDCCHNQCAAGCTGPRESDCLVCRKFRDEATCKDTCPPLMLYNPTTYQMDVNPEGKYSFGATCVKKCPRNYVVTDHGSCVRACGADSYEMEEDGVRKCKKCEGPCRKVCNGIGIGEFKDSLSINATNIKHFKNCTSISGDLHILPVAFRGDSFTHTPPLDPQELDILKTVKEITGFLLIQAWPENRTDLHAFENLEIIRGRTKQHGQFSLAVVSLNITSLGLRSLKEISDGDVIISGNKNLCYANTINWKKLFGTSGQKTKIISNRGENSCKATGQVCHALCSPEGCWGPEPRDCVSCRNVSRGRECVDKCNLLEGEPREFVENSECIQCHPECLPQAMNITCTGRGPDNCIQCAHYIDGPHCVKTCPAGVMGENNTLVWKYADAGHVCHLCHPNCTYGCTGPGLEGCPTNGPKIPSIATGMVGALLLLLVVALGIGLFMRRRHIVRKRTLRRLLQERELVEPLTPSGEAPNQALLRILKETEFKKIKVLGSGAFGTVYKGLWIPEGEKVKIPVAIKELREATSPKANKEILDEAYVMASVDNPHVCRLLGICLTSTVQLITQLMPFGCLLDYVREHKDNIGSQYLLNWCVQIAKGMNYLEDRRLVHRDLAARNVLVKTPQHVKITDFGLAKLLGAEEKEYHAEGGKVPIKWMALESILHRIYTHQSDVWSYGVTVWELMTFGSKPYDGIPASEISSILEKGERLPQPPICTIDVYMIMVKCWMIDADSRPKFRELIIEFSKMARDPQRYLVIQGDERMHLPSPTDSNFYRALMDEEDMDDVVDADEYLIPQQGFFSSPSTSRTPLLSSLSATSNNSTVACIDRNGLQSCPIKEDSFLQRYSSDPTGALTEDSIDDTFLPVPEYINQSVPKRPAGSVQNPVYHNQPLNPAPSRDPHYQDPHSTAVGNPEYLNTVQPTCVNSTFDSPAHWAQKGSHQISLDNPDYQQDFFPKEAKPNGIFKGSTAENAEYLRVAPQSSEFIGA

Sequence of EGFR (human) (P00533 whole entry, looked up): as above

Row | Compound | IC50 (EGFR (human) [1]) | further results
1 | CN(C)c1ccc2ncnc(Nc3cccc(Br)c3)c2n1 | 71 nM | –
2 | CN(C)c1cc2c(Nc3cccc(Br)c3)ncnc2cn1 | 39 nM | IC50 (EGFR (human) [2]): 12000 nM
3 | NNc1ncc2c(NCc3ccccc3)ncnc2n1 | < 10 nM | IC50 (EGFR (human) [3]): 124 nM
4 | Nc1ccc2ncnc(Nc3cccc(Br)c3)c2n1 | 2660 nM | –
5 | CNc1cc2c(Nc3cccc(Br)c3)ncnc2cn1 | < 10 nM | IC50 (EGFR (human) [2]): 3000 nM
6 | Fc1ccc2ncnc(Nc3cccc(Br)c3)c2n1 | > 10000 nM | –
7 | Nc1cc2ncnc(NCc3ccccc3)c2cn1 | – | inhibition (EGFR (mice)): 5%
8 | c1ccc(CNc2ncnc3[nH]ccc23)cc1 | > 1000 nM | IC50 (EGFR (human) [3]): > 1000 nM
9 | Nc1cc2ncnc(Nc3cccc(Br)c3)c2cn1 | 800 nM | –
10 | Nc1cc2ncnc(Nc3cccc([N+](=O)[O-])c3)c2cn1 | 1500 nM | –
11 | COc1cc2c(Nc3cccc(Br)c3)ncnc2cn1 | < 10 nM | –
12 | CNc1ccc2ncnc(Nc3cccc(Br)c3)c2n1 | 100 nM | –

Reference: the Kinase Knowledgebase extract (Sharma et al. 2016)
